Laboratory results taken from patent US20090170067A1, “Simian tropic, recombinant human immunodeficiency-1 viruses” (The Rockefeller University, priority 2006, published 2009).

Columns and labels:
[1] = test system: stHIV/KB9; assay: Sensitivity to RT inhibitors, TZM luciferase infection assay; type: cell-based, simian-tropic HIV-1; conditions: TZM-bl indicator cells, FIG. 5A,B
[2] = test system: SIVMAC239; assay: as above; type: cell-based, simian immunodeficiency virus; conditions: TZM-bl indicator cells, FIG. 5A,B
[3] = test system: HIV-1NL4-3; assay: as above; type: cell-based; conditions: TZM-bl indicator cells, FIG. 5A,B
[4] = target: rhesus macaque APOBEC3G (rhesus macaque); assay: cell-based or functional assay
[5] = target: HIV-1 capsid (CA) protein of the HIV-1NL4-3-based viruses (HIV/KB9/GFP, HIV(SVif)/KB9/GFP) (HIV-1 (NL4-3)) (UniProt P12493); assay: cell-based or functional assay
[6] = test system: HIV-1NL4-3; assay: Protease inhibitor virus inhibition assay (infected HUT-R5 cells, readout on TZM-bl); type: cell-based; conditions: infected HuT-CCR5 cells, FIG. 5C
[7] = test system: SIVMAC239; assay: as above; type: cell-based, simian immunodeficiency virus; conditions: infected HuT-CCR5 cells, FIG. 5C
[8] = test system: stHIV/KB9; assay: as above; type: cell-based, simian-tropic HIV-1; conditions: infected HuT-CCR5 cells, FIG. 5C

Chain of rhesus macaque APOBEC3G (rhesus macaque) (Q7YR24 whole entry): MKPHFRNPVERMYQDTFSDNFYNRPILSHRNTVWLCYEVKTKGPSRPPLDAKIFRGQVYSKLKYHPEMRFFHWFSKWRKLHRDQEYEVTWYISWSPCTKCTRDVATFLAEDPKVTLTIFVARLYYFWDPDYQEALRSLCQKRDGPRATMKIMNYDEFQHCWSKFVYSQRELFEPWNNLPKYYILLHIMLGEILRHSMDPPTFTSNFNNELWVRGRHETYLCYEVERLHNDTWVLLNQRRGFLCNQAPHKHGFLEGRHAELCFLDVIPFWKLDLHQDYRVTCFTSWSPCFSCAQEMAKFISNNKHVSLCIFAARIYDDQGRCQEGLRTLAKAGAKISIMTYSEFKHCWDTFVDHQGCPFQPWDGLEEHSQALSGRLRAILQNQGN

## Cc1cn([C@H]2C[C@H](N=[N+]=[N-])[C@@H](CO)O2)c(=O)[nH]c1=O [AZT]
[1]
  inhibition of infection (luciferase, percentage of uninhibited level), result in words: equally sensitive
[2]
  inhibition of infection (luciferase, percentage of uninhibited level), result in words: equally sensitive
[3]
  inhibition of infection (luciferase, percentage of uninhibited level), result in words: equally sensitive

## SIVMAC Vif protein (SIVMAC239) as expressed by HIV(SVif)/KB9/GFP and B3HIV(SCA,SVif)/KB9/GFP
[4]
  fold decrease in single-cycle infectivity on CEMx174 cells of virus made in 293T cells with or without rhAPOBEC3G: < 2 fold

## HIV-1 Vif protein of the HIV-1NL4-3-based viruses (HIV/KB9/GFP, B3HIV(SCA)/KB9/GFP) (from UniProt P12504 1-192)
[4]
  single-cycle infectivity on CEMx174 cells of virus made in 293T cells with or without rhAPOBEC3G: 30 fold

## Cc1ccnc2c1NC(=O)c1cccnc1N2C1CC1 [nevirapine]
[1]
  inhibition of infection (luciferase, percentage of uninhibited level), result in words: potently inhibited
[2]
  inhibition of infection (luciferase, percentage of uninhibited level), result in words: ineffective or poorly inhibitory
[3]
  inhibition of infection (luciferase, percentage of uninhibited level), result in words: effective inhibitors

## rhesus macaque TRIM5α (from UniProt Q0PF16 1-497)
[5]
  single-cycle infectivity (GFP-positive cells) in CEMx174 cells expressing rhTRIM5α against unmodified CEMx174 cells: 30 fold
  single-cycle infectivity (GFP-positive cells) in rhesus macaque 221 cells against unmodified CEMx174 cells: 70 fold

## CC(C)CN(C[C@@H](O)[C@H](Cc1ccccc1)NC(=O)O[C@H]1CCOC1)S(=O)(=O)c1ccc(N)cc1 [amprenavir]
[6]
  inhibition of infectious virus generation, result in words: effective inhibitors
[7]
  inhibition of infectious virus generation, result in words: ineffective or poorly inhibitory
[8]
  inhibition of infectious virus generation, result in words: potently inhibited
